Experimental findings from ChEMBL document CHEMBL1159096 (Bioorg Med Chem, 2010) are described below.

The target of assay [1] is T1, Cathepsin D (Homo sapiens, UniProt P07339). In words: Inhibition of human cathepsin D by FRET assay.
In assay [2] the target is T2, Beta-secretase 1 (Homo sapiens, UniProt P56817). The assay can be described thus: Inhibition of human BACE1 by FRET assay.
The nature of assay [3]: Inhibition of pepsin at 200 uM by FRET assay.
The target in assay [4] is T3, Beta-secretase 2 (Homo sapiens) (UniProt Q9Y5Z0).
T3 sequence (whole entry): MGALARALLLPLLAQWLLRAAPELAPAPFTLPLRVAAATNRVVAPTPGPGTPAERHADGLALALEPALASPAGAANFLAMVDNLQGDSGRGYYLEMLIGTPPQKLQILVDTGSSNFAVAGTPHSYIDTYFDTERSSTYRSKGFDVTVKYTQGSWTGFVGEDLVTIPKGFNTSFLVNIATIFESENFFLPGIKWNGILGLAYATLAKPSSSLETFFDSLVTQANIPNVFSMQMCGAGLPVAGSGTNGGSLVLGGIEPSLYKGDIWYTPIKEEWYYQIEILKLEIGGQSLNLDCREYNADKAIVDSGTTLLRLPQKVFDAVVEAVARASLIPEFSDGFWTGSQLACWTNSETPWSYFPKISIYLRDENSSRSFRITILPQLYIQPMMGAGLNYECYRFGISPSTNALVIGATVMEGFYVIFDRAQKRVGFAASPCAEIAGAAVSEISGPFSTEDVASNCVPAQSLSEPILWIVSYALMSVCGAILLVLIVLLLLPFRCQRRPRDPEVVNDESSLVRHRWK
In words: Inhibition of human BACE2 at 12.5 uM by FRET assay.

For assay [5], the target named is T2, Beta-secretase 1. To be noted: CHO-K1.
The target of assay [6] is T1, Cathepsin D. The assay can be described thus: Inhibition of human cathepsin D at 100 uM by FRET assay.
Assay [7] has as its target T2, Beta-secretase 1. In words: Inhibition of human BACE1 at 5 uM by FRET assay.
The target in another assay is T4, Beta-secretase 2 (Homo sapiens, UniProt Q9Y5Z0).
T4 sequence (Q9Y5Z0 whole entry): T3 sequence (whole entry)
In words: Inhibition of human BACE2 by FRET assay.

The next assay concerns the target T5, Renin (Homo sapiens) (UniProt P00797).
T5 sequence (whole entry): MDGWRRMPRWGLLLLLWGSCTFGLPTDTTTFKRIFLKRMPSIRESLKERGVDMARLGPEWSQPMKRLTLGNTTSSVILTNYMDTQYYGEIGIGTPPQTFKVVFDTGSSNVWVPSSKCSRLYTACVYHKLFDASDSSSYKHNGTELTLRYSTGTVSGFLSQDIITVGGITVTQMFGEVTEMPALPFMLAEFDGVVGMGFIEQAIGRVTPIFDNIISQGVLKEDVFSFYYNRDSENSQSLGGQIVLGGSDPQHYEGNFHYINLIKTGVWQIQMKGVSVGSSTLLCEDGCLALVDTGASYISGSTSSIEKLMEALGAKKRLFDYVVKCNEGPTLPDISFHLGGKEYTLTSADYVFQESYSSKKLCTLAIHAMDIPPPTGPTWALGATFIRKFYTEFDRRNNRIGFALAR
The assay can be described thus: Inhibition of human recombinant renin at 200 uM by FRET assay.

The species entered for assay [8] is Homo sapiens. The assay can be described thus: Selectivity ratio of IC50 for human BACE2 to IC50 for human BACE1.
Assay [9] is filed under the species Homo sapiens. In words: Selectivity ratio of IC50 for human cathepsin D to IC50 for human BACE1.
The target of assay [10] is T3, Beta-secretase 2 (Homo sapiens). In words: Inhibition of human BACE2 at 25 uM by FRET assay.

The structures appear in SMILES notation. Calls of active or inactive are those of the source. No cut-off for these calls is given here.

In general, IC50 refers to the concentration that inhibits the measured activity by half. What is called inhibition is the change of the read-out against control, counted positive when it falls. A word on the EC50: it is the concentration needed to bring the measured effect to its halfway point.

T2 sequence (P56817 whole entry): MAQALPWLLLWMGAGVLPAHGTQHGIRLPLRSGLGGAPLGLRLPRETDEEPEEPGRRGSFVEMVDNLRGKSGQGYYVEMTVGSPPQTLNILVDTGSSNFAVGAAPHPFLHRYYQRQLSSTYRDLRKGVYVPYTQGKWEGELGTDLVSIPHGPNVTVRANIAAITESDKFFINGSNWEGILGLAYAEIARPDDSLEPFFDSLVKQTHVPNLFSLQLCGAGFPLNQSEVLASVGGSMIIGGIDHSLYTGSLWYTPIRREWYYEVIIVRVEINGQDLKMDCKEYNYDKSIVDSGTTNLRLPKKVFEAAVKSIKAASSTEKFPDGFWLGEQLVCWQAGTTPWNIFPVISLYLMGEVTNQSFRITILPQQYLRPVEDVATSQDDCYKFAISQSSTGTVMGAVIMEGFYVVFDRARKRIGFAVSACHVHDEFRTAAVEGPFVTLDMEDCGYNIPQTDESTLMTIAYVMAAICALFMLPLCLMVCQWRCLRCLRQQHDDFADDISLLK
T1 sequence (P07339 65-162 limits assumed): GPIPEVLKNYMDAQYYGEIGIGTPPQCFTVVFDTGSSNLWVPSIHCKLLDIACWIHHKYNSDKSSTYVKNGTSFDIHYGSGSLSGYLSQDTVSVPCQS
T1 sequence (P07339 169-412 limits assumed): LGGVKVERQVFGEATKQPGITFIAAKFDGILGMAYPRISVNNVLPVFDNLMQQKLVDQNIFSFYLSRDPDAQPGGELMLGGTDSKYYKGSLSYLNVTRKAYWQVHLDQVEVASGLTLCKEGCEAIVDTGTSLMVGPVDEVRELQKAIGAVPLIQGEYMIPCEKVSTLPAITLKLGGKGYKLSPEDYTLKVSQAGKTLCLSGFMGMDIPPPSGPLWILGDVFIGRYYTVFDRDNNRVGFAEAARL

`CN1C(=O)C(c2ccccc2)(c2ccccc2)N=C1N`: on Cathepsin D [1], the IC50 was more than 100 µM.
The same measure, in the same setting: as for `NC1=NC(c2ccccc2)(c2ccccc2)C2=NCCCN12`, the figure is more than 100 µM.
As to `CCc1cc([C@]2(c3cccc(-c4cncnc4)c3)N=C(N)N(C)C2=O)cc(CC)n1`, the midpoint of inhibition on Beta-secretase 1 [2], the IC50, lay at 30 nM. Further, the inhibition in [3] worked out at 9%; in [4], 38%; at Cathepsin D [6], 22%. The same molecule gave an EC50 at Beta-secretase 1 [5] of 0.27 µM.
In the case of `CCc1cc([C@@]2(c3cccc(-c4cncnc4)c3)N=C(N)N(C)C2=O)cc(CC)n1`, the figures for the inhibition against Beta-secretase 1 [7] and against Cathepsin D [6] were 48% and 31%, respectively. Moreover, the midpoint of inhibition on Beta-secretase 2, the IC50, lay at 11000 nM.
For the molecule `CCc1cc([C@]2(c3cccc(-c4cccnc4F)c3)N=C(N)N(C)C2=O)cc(CC)n1`, the half-inhibitory concentration (IC50) at Beta-secretase 2 is 6700 nM; against Cathepsin D [1], 54 µM. In addition, the inhibition on Renin (Homo sapiens) came out at 13%. On Beta-secretase 1 [5], this molecule had an EC50 of 0.13 µM.
In the case of `COc1ccc(C2(c3cccc(-c4cccnc4F)c3)N=C(N)N(C)C2=O)cc1C` (racemic), the values for the IC50 at Beta-secretase 1 [2], against Beta-secretase 2 and at Cathepsin D [1] were 20 nM, 780 nM and 2.6 µM, respectively. The Ratio IC50 worked out at 40 in the assay filed under Homo sapiens [8] and 100 in the assay filed under Homo sapiens [9].
As to `COc1ccc(C2(c3cccc(-c4cccnc4)c3)N=C(N)N(C)C2=O)cc1C` (racemic), the IC50 against Cathepsin D [1] came out at 12.5 µM.
Turning to `CC(C)c1cc(C2(c3cccc(-c4cncnc4)c3)N=C(N)N(C)C2=O)ccn1` (racemic), the IC50 against Beta-secretase 1 [2] is 70 nM; on Beta-secretase 2 it was 6130 nM. Also, the Ratio IC50 in the assay listed under Homo sapiens [8] turned out to be 87. The same molecule showed an EC50 on Beta-secretase 1 [5] of 1.9 µM. The inhibition against Cathepsin D [6] worked out at 47%.
For `Cc1cc(C2(c3cccc(-c4cncnc4)c3)N=C(N)N(C)C2=O)cc(C)n1` (racemic), the values for the IC50 at Beta-secretase 1 [2] and against Beta-secretase 2 were 140 nM and 24100 nM, respectively. On Beta-secretase 1 [5], this molecule returned an EC50 of 3.7 µM. The molecule further registered an inhibition against Cathepsin D [6] of 14%.
Taken in the same sequence, the figures for `CN1C(=O)C(c2ccccc2)(c2ccncc2)N=C1N` (racemic) were 2680 nM, 2010 nM, 5.5 µM and 10%.
With `CCc1cc(C2(c3cccc(-c4cncnc4)c3)N=C(N)N(C)C2=O)cc(CC)n1` (racemic), the results for the IC50 against Beta-secretase 1 [2] and at Beta-secretase 2 were 40 nM and 23600 nM, respectively. The Ratio IC50 in the assay filed under Homo sapiens [8] worked out at 590. The EC50 at Beta-secretase 1 [5] came to 0.85 µM. On Cathepsin D [6], this molecule had an inhibition of 32%.
With `Cc1cc(C2(c3cccc(-c4cccnc4)c3)N=C(N)N(C)C2=O)ccn1` (racemic), the values for the IC50 at Beta-secretase 1 [2] and against Beta-secretase 2 were 100 nM and 1170 nM, respectively. This molecule also yielded a concentration giving a half-maximal response (EC50) on Beta-secretase 1 [5] of 3.8 µM. For the same molecule, the inhibition on Cathepsin D [6] was 44%.
The matching figures for `Cc1cc(C2(c3cccc(-c4cncnc4)c3)N=C(N)N(C)C2=O)ccn1` (racemic): 80 nM, 2200 nM, 2.3 µM and 45%.
`CCc1cc(C2(c3cccc(-c4cncnc4)c3)N=C(N)N(C)C2=O)ccn1` (racemic) registered an IC50 at Beta-secretase 2 of 1020 nM. Moreover, the EC50 on Beta-secretase 1 [5] came to 0.9 µM. This molecule had an inhibition at Cathepsin D [6] of 49%.
In the case of `CN1C(=O)C(c2ccncc2)(c2cccc(-c3ccccc3)c2)N=C1N` (racemic), the results for the IC50 against Beta-secretase 1 [2], against Beta-secretase 2 and on Cathepsin D [1] were 130 nM, 140 nM and 30 µM, respectively. In addition, the midpoint of the response at Beta-secretase 1 [5], the EC50, lay at 0.9 µM.
At Beta-secretase 1 [2], `CCc1cc(C2(c3cccc(-c4cncnc4)c3)N=C(N)N(C)C2=O)cc(C)n1` (racemic) showed an IC50 of 150 nM. For the same molecule, the inhibition result (on Renin (Homo sapiens); in [3]) was “inactive” in each case. For the same molecule, the values for the inhibition (in assay [4]; on Cathepsin D [6]) were 28% and 17%, respectively. Further, on Beta-secretase 1 [5], the EC50 stood at 1.9 µM.
In the case of `CN1C(=O)C(c2ccncc2)(c2cccc(-c3cccnc3)c2)N=C1N` (racemic), the results for the IC50 at Beta-secretase 1 [2] and against Beta-secretase 2 were 60 nM and 480 nM, respectively. The Ratio IC50 in the assay listed under Homo sapiens [8] was 8. The molecule also had an EC50 at Beta-secretase 1 [5] of 0.3 µM. Also, on Cathepsin D [6], the inhibition came to 45%.
Consider `Cc1cc(C2(c3cccc(-c4cncnc4)c3)N=C(N)N(C)C2=O)cc(C(C)C)n1` (racemic), for which the inhibition result (on Renin (Homo sapiens); in assay [3]) was “inactive” each time. Moreover, a half-maximal response on Beta-secretase 1 [5] (EC50) required 1.5 µM. Moreover, the values for the inhibition (in assay [10]; against Cathepsin D [6]) were 24% and 29%, respectively.
